Assays:
Aspergillus fumigatus [1] = test: Antifungal activity against Aspergillus fumigatus ATCC 280996; assay type: functional
Mus musculus = test: Neurotoxicity in mouse assessed as mortality up to 300 mg/kg after 4 hrs; assay type: toxicity, organism-based; parameters: dose 300 mg/kg; settings: in vivo
Aspergillus fumigatus [2] = test: Antifungal activity against Aspergillus fumigatus F69827; assay type: functional
[3] = Cytotoxicity against human Molt 4/C8 cells; assay type: functional, cell-based; settings: Molt4/C8
Aspergillus fumigatus [4] = test: Antifungal activity against Aspergillus fumigatus ATCC 280995; assay type: functional
CCRF-CEM = test: Cytotoxicity against human CEM cells; assay type: functional, cell-based
L1210 = test: Cytotoxicity against mouse L1210 cells; assay type: functional, cell-based
Aspergillus fumigatus [5] = test: Antifungal activity against Aspergillus fumigatus M44251; assay type: functional
Aspergillus fumigatus [6] = test: Antifungal activity against Aspergillus fumigatus ATCC 280997; assay type: functional
[7] = Cytotoxicity against human leukemia cells; assay type: functional; settings: Leukemia cell
[8] = Cytotoxicity against human colon cancer cells; assay type: functional; settings: Cancer cell lines
[9] = molecular target: T1, Glycylpeptide N-tetradecanoyltransferase 1 (Homo sapiens) (UniProt P30419); test: Inhibition of human NMT at 50 uM
T1 sequence (whole entry): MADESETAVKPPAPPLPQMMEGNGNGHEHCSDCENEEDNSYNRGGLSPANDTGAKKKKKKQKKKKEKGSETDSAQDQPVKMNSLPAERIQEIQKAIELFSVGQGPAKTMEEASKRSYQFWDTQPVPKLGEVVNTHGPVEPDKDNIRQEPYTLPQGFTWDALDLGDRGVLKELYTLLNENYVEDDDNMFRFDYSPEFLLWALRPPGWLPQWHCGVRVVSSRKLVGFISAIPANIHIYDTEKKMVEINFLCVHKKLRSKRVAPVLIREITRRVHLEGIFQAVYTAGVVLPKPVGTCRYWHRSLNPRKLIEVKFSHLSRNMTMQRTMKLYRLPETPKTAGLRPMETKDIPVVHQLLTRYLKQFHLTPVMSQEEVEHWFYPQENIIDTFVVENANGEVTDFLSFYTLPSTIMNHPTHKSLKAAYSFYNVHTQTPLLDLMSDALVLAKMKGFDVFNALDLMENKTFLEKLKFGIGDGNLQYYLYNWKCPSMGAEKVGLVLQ

[10] = molecular target: T1, Glycylpeptide N-tetradecanoyltransferase 1 (Homo sapiens); test: Inhibition of human NMT at 100 uM

| Compound | MIC (Aspergillus fumigatus [1]) [µg/mL] | Activity (Mus musculus) | MIC (Aspergillus fumigatus [2]) [µg/mL] | IC50 [3] [µM] | MIC (Aspergillus fumigatus [4]) [µg/mL] | IC50 (CCRF-CEM) [µM] | IC50 (L1210) [µM] | MIC (Aspergillus fumigatus [5]) [µg/mL] | MIC (Aspergillus fumigatus [6]) [µg/mL] | GI50 [7] [µM] | GI50 [8] [µM] | inhibition [9] [%] | inhibition [10] [%] |
| --- | --- | --- | --- | --- | --- | --- | --- | --- | --- | --- | --- | --- | --- |
| O=C(/C=C/C(=O)N1C/C(=C\c2ccccc2)C(=O)/C(=C/c2ccccc2)C1)Nc1ccc([N+](=O)[O-])cc1 | > 50 | Non-toxic | > 50 | 31 | > 50 | 40 | 40 | > 50 | > 50 |  |  |  |  |
| O=C(/C=C/C(=O)N1C/C(=C\c2ccc([N+](=O)[O-])cc2)C(=O)/C(=C/c2ccc([N+](=O)[O-])cc2)C1)Nc1ccc([N+](=O)[O-])cc1 | > 50 | Non-toxic | > 50 | 0.43 | > 50 | 0.41 | 1 | > 50 | > 50 |  |  |  |  |
| Cc1ccc(NC(=O)/C=C/C(=O)N2C/C(=C\c3ccc([N+](=O)[O-])cc3)C(=O)/C(=C/c3ccc([N+](=O)[O-])cc3)C2)cc1C | > 50 | Non-toxic | > 50 | 0.66 | > 50 | 0.7 | 4.9 | > 50 | > 50 |  |  |  |  |
| N[C@@H](Cc1ccc(N(CCCl)CCCl)cc1)C(=O)O [MELPHALAN] |  |  |  |  |  |  |  |  |  | 3.98 | 50.1 |  |  |
| Cc1ccc(NC(=O)/C=C/C(=O)N2C/C(=C\c3ccccc3)C(=O)/C(=C/c3ccccc3)C2)cc1 | > 50 | Non-toxic | > 50 | 0.66 | > 50 | 1.1 | 5.8 | > 50 | > 50 |  |  | 50 |  |
| Cc1ccc(NC(=O)/C=C/C(=O)N2C/C(=C\c3ccc([N+](=O)[O-])cc3)C(=O)/C(=C/c3ccc([N+](=O)[O-])cc3)C2)cc1 | > 50 | Non-toxic | > 50 | 0.7 | > 50 | 0.89 | 4.4 | > 50 | > 50 |  |  | 50 |  |
| Cc1ccc(NC(=O)/C=C/C(=O)N2C/C(=C\c3ccccc3)C(=O)/C(=C/c3ccccc3)C2)cc1C | > 50 | Non-toxic | > 50 | 7.9 | > 50 | 7.1 | 31 | > 50 | > 50 |  |  |  |  |
| Cc1cccc(C)c1NC(=O)/C=C/C(=O)N1C/C(=C\c2ccc([N+](=O)[O-])cc2)C(=O)/C(=C/c2ccc([N+](=O)[O-])cc2)C1 | > 50 | Non-toxic | > 50 | 0.21 | > 50 | 0.23 | 0.69 | > 50 | > 50 |  |  |  |  |
| Cc1cccc(C)c1NC(=O)/C=C/C(=O)N1C/C(=C\c2ccccc2)C(=O)/C(=C/c2ccccc2)C1 | > 50 | Non-toxic | > 50 | 6.6 | > 50 | 7.4 | 22 | > 50 | > 50 |  |  |  |  |
| CC(=O)c1ccc(NC(=O)/C=C/C(=O)N2C/C(=C\c3ccc([N+](=O)[O-])cc3)C(=O)/C(=C/c3ccc([N+](=O)[O-])cc3)C2)cc1 | > 50 | Non-toxic | > 50 | 0.39 | > 50 | 0.36 | 1.4 | > 50 | > 50 |  |  |  |  |
| O=C(/C=C/C(=O)N1C/C(=C\c2ccccc2)C(=O)/C(=C/c2ccccc2)C1)Nc1ccccc1 | > 50 | Non-toxic | > 50 | 0.52 | > 50 | 1.1 | 3.6 | > 50 | > 50 |  |  |  |  |
| O=C(/C=C/C(=O)N1C/C(=C\c2ccc([N+](=O)[O-])cc2)C(=O)/C(=C/c2ccc([N+](=O)[O-])cc2)C1)Nc1ccccc1 | > 50 | Non-toxic | > 50 | 0.36 | > 50 | 0.37 | 1.8 | > 50 | > 50 |  |  |  |  |
| O=C(/C=C/C(=O)N1C/C(=C\c2ccc([N+](=O)[O-])cc2)C(=O)/C(=C/c2ccc([N+](=O)[O-])cc2)C1)Nc1ccc(Cl)cc1 | > 50 | Non-toxic | > 50 | 1.2 | > 50 | 0.81 | 3.6 | > 50 | > 50 |  |  |  |  |
| COc1ccc(NC(=O)/C=C/C(=O)N2C/C(=C\c3ccc([N+](=O)[O-])cc3)C(=O)/C(=C/c3ccc([N+](=O)[O-])cc3)C2)cc1 | > 50 | Non-toxic | > 50 | 0.94 | > 50 | 0.76 | 2.9 | > 50 | > 50 |  |  |  |  |
| CC(=O)c1ccc(NC(=O)/C=C/C(=O)N2C/C(=C\c3ccccc3)C(=O)/C(=C/c3ccccc3)C2)cc1 | > 50 | Non-toxic | > 50 | 1.4 | > 50 | 1.7 | 5.5 | > 50 | > 50 |  |  |  |  |
| C[C@@H](c1ncncc1F)[C@](O)(Cn1cncn1)c1ccc(F)cc1F [VORICONAZOLE] | ≤ 0.25 |  | ≤ 0.25 |  | ≤ 0.25 |  |  | ≤ 0.25 | ≤ 0.25 |  |  |  |  |
| O=C(/C=C/C(=O)N1C/C(=C\c2ccccc2)C(=O)/C(=C/c2ccccc2)C1)Nc1ccc(Cl)cc1 | > 50 | Non-toxic | > 50 | 1.8 | > 50 | 0.84 | 7.8 | > 50 | > 50 | 0.589 | 1.15 |  |  |
| COc1ccc(NC(=O)/C=C/C(=O)N2C/C(=C\c3ccccc3)C(=O)/C(=C/c3ccccc3)C2)cc1 | > 50 | Non-toxic | > 50 | 1.1 | > 50 | 0.51 | 6.8 | > 50 | > 50 | 0.105 | 0.759 |  |  |
| O=c1[nH]cc(F)c(=O)[nH]1 [FLUOROURACIL] |  |  |  |  |  |  |  |  |  | 52.5 | 5.75 |  |  |
| O=C(/C=C/C(=O)N1C/C(=C\c2ccccc2)C(=O)/C(=C/c2ccccc2)C1)Nc1ccc(Cl)c(Cl)c1 | > 50 | Non-toxic | > 50 | 1.7 | > 50 | 0.35 | 7.5 | > 50 | > 50 | 0.447 | 0.646 |  | 50 |
| O=C(/C=C/C(=O)N1C/C(=C\c2ccc([N+](=O)[O-])cc2)C(=O)/C(=C/c2ccc([N+](=O)[O-])cc2)C1)Nc1ccc(Cl)c(Cl)c1 | > 50 | Non-toxic | > 50 | 0.6 | > 50 | 0.38 | 1.7 | > 50 | > 50 |  |  |  | 50 |

— ChEMBL document CHEMBL1149619, “E,E,E-1-(4-Arylamino-4-oxo-2-butenoyl)-3,5-bis(arylidene)-4-piperidones: a topographical study of some novel potent cytotoxins” (Bioorg Med Chem, 2007)
